Test results taken from patent US9381173B2, “Isolated stereoisomeric forms of (S)2-N(3-O-(propan 2-Ol)-1-propyl-4-hydroxybenzene)-3-phenylpropylamide” (Novaremed Ltd., priority 2011, dated 2016).

Assays:
[1] = Body weight in the Chung model study; format: in vivo, rats
Method: Body Weights: Body weight was measured at regular intervals on study days −1 for baseline values and seven days after the surgery (study day 7).

[2] = test system: spinal nerve ligation (SNL or Chung) model for neuropathic pain in rats; experiment: Spinal nerve ligation (Chung) model, Von Frey test for mechanical allodynia; format: in vivo
Method: The antinociceptive and analgesic activity of E1 in a spinal nerve ligation (SNL or Chung) model for neuropathic pain in rats was evaluated.
On study day 0, all animals underwent Chung surgery, which consisted of an operation where the left L5-L6 spinal nerves were isolated and cut. Fourteen days post surgery the animals were selected using pain threshold results from the Von Frey test. Only animals that indicated signs of mechanical allodynia were included in the study. After the selection process, the animals were grouped and Test Items were administered via IP. The pain response was measured using Von Frey methodology at 2, 5 and 24 hours after Test Item administration on study day 14, and at 2, 5, 24 and 48 hours on study day 21 after 7 days of Test Item administration.
Species: 50 SD young adult male rats, 225-260 g at study initiation (Harlan Laboratories, Israel. Ltd.)
Neuropathic Pain Induction: While under anesthesia using ketamine/xylazine sodium and after the area was shaved, the rat was placed in a prone position and the left paraspinal muscles were separated from the spinous process at the L4-S2 levels. The L6 vertebral transverse process was carefully removed with a small rongeur to visually identify the L5-L6 spinal nerves. The left L5-L6 spinal nerves were cut. The muscle was then closed with 4-0 silk sutures and the skin was closed by a clamp. Following surgery, the rats were returned to the cage and remained under a heating lamp until they awoke.
Inclusion/Exclusion Criteria for Pre-Selection: On post-operative day 14, animals were tested for mechanical allodynia using Von Frey methodology prior to being placed in their experimental groups. Only animals with a pain threshold of ≦26 g for the operated leg were included in the study. In order to form homogenous treatment groups and to adhere to randomization, all the operated rats were grouped according to inclusion/exclusion criteria.
The Von Frey test was performed prior to Test Items' administrations (pre-TI injection) and at 2 and 5 hours after TI administration (post-TI injection) on study days 14 and 21.
Von Frey test was performed prior to TI's administration on study day 15 (24 hours post-TI's administration on study day 14) and on study days 22 and 23 (24 and 48 hours respectively post-TI's administration on study day 21).
Pain Response Evaluation: Pain response was evaluated using Von Frey test for mechanical allodynia.
The Von Frey test for mechanical allodynia is based on applying short pulses of pressure that are not painful to a naive animal. In fact, in order to achieve paw withdrawal from a naive animal, the pressure applied is sometimes higher than 60 g. This often requires the researcher to apply enough pressure with the Von Frey filament to actually lift the paw of the naive animal. However, in disease conditions, the animals are sensitive to much lower pressure and experience pain as a result of a normally non-painful stimulus.
Mechanical Allodynia Evaluation (Von Frey Testing): Allodynic response to tactile stimulation was assessed using the Von Frey apparatus (Touch®).
The rats were placed in an enclosure and positioned on a metal mesh surface, but allowed to move freely. The rats' cabins were covered with red cellophane to diminish environmental disturbances. The test began after cessation of exploratory behavior. The set of Von Frey monofilaments provide an approximate logarithmic scale of actual force and a linear scale of perceived intensity as provided by the manufacturer of the Von Frey apparatus (Ugo Basil). The operating principle: When the tip of a fiber of given length and diameter is pressed against the skin at right angles, the force of application increases as long as the researcher continues to advance the probe until the fiber bends. After the fiber bends, the probe continues to advance, causing the fiber to bend more, but without additional force being applied to the paw. […]

[3] = test system: tail flick model for nociceptive pain in mice; experiment: Tail flick test for nociceptive pain; format: in vivo; conditions: for Mean latency time Post-treatment: 30 minutes after administration; for Mean latency time Pre-treatment: baseline a day before
Method: In the present study the analgesic effect of the substantially pure enantiomers E1 and E2 was evaluated using the tail flick model for nociceptive pain in mice.
The experiment was performed using male ICR strain 7 weeks old mice (25-27 g) (supplied by Harlan Israel, Ltd.)
Response to pain was assessed using the tail flick method which utilizes an Ugo Basile tail flick instrument. The animal is placed and held gently on the Ugo Basile tail flick (TF) instrument surface with the tail straight back and above a photoelectric cell that served as heat source. The heat source and timer are turned on by a foot pedal press, and automatically switch off when the animal flicks its tail off the emitter. Latency is measured and analyzed as an analgesic effect.
Description of the Study: The baseline tail flick was measured a day before the experiment started. On the day of the experiment, animal body weights were first measured followed by the IP administration of the test items (vehicle, morphine, NRD 13 S E1 and E2). 30 minutes after administration of the test items, the animals were subjected to the tail-flick testing. The tail-flick experiments were followed by blood sampling of all groups. The experiment was terminated after spinal cords and brains of all groups have been collected.
Statistics and Data Evaluation: All parameters are represented as means and standard error of the mean (SEM). Data was analyzed using a two tailed, unpaired T-test to compare each treatment group to the Vehicle treated animals. A two-tailed, paired T-test was used to compare the pre-treatment and post-treatment of each treatment group. Probability values p<0.01 and p<0.05 are considered significant.

[4] = molecular target: BLK (Homo sapiens, UniProt P51451); experiment: BLK mobility-shift kinase assay (Caliper LabChip 3000); format: biochemical; conditions: 5 concentrations, duplicate wells; listed as (S,R) enantiomer
BLK, sequence (P51451 whole entry, species assumed): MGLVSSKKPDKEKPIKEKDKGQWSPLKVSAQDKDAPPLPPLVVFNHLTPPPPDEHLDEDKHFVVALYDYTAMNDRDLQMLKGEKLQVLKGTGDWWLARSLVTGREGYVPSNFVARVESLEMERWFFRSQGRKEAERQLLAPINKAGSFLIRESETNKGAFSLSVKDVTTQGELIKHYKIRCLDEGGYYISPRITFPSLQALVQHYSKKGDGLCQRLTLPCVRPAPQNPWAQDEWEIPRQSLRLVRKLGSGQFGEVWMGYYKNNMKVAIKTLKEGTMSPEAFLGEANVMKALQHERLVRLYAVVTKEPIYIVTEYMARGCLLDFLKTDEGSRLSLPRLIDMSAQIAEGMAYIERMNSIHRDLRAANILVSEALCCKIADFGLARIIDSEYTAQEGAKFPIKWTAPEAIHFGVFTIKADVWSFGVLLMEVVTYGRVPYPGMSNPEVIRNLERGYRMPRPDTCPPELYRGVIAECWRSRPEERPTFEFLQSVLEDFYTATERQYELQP
Method: (§1) Each compound and concentration was tested in duplicate wells.
(§2) Data points are the averages of duplicate wells. Error bars represent the mean±replicate % activity.

[5] = molecular target: Lyn A (Homo sapiens, UniProt P07948); experiment: Lyn A mobility-shift kinase assay (Caliper LabChip 3000); format: biochemical; conditions: 5 concentrations, duplicate wells; listed as (S,R) enantiomer
Lyn A, sequence (P07948 whole entry, species assumed): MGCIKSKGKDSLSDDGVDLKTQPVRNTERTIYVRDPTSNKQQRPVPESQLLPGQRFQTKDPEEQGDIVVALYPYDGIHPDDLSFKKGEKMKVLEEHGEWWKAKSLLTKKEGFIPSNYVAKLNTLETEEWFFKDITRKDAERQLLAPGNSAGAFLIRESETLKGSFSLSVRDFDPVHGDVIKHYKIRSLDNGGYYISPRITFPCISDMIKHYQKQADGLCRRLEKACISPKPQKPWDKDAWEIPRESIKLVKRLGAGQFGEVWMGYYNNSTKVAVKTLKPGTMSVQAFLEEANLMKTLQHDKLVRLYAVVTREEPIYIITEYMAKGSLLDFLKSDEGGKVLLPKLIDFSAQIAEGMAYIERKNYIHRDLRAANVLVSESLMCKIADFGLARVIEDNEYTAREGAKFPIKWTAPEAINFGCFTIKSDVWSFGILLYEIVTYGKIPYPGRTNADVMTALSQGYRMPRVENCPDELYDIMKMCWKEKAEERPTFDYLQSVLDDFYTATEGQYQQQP
Method: as §1, §2

[6] = molecular target: Lyn B (Homo sapiens, UniProt P07948); experiment: Lyn B mobility-shift kinase assay (Caliper LabChip 3000); format: biochemical; conditions: 5 concentrations, duplicate wells; listed as (S,R) enantiomer
Lyn B, sequence (P07948 1-491 isoform P07948-2, species assumed): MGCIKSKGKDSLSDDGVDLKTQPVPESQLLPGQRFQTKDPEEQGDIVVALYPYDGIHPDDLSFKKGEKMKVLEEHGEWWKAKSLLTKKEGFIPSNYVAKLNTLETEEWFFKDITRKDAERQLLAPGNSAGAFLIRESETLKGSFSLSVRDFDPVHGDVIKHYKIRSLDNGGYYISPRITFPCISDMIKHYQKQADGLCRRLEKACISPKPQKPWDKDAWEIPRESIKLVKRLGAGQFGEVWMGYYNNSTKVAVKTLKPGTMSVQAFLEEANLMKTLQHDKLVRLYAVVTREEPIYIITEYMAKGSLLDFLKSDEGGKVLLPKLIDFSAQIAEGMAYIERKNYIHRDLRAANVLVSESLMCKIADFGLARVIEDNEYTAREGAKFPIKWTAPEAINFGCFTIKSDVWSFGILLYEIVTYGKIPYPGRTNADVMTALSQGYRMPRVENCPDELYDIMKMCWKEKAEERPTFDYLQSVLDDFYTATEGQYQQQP
Method: as §1, §2

[7] = 150 mg/kg IP on days 14, 15, 21 (group 2)
[8] = 150 mg/kg IP (group 2), before first dose
[9] = 150 mg/kg IP, study day 14, 2 hours
[10] = 150 mg/kg IP, study day 21, 2 hours

## NCC1(CC(=O)O)CCCCC1 [Gabapentin, reference compound]
[1]; 150 mg/kg IP (group 2), before first administration
  Mean group body weight Day 14: 283.30 ± 2.53 g
[1]; 150 mg/kg IP (group 2), before treatment
  Mean group body weight Day 7: 255.20 ± 2.83 g
[1]; 150 mg/kg IP (group 2), study day -1, before surgery and treatment
  Mean group body weight Baseline: 242.10 ± 2.44 g
[1]; [7]
  Mean group body weight Day 21: 307.90 ± 3.42 g
[2]; 150 mg/kg IP (group 2)
  delta force right minus left leg, Day 14 Post-treatment 5 hours: 48.20 ± 1.85 g
  mean Von Frey force, left operated leg, Day 14 Post-treatment 5 hours: 11.80 ± 1.85 g
[2]; [8]
  delta force right minus left leg, Day 14 Pretreatment: 50.00 ± 0.88 g
  mean Von Frey force, left operated leg, Day 14 Pretreatment: 10.00 ± 0.88 g
[2]; 150 mg/kg IP (group 2), before operation
  difference (delta) force between right healthy leg and left operated leg, Baseline: 0.00 ± 0.00 g
[2]; 150 mg/kg IP (group 2), day -1, before operation
  mean Von Frey force required for withdrawal of the left operated leg, Baseline: 53.20 ± 4.53 g
[2]; [7]
  delta force right minus left leg, Day 21 Post-treatment 5 hours: 47.40 ± 1.85 g
  delta force right minus left leg, Day 21 Post-treatment 24 hours: 46.60 ± 2.29 g
  delta force right minus left leg, Day 21 Post-treatment 48 hours: 50.50 ± 0.69 g
  delta force right minus left leg, Day 21 Pretreatment: 49.80 ± 0.85 g
  mean Von Frey force, left operated leg, Day 21 Post-treatment 5 hours: 12.60 ± 1.85 g
  mean Von Frey force, left operated leg, Day 21 Post-treatment 24 hours: 13.40 ± 2.29 g
  mean Von Frey force, left operated leg, Day 21 Post-treatment 48 hours: 9.50 ± 0.69 g
  mean Von Frey force, left operated leg, Day 21 Pretreatment: 10.20 ± 0.85 g
[2]; 150 mg/kg IP, 2 hours after administration on study days 14 and 21
  conclusion: analgesic activity of the positive control: active
[2]; 150 mg/kg IP, 5 hours, 24 hours and 48 hours post dosing
  conclusion: analgesic activity of the positive control: no longer detected
[2]; 150 mg/kg IP, day 14, 2 hours
  inhibition of allodynia compared to the pretreatment value of delta withdrawal force: inhibited allodynia
[2]; 150 mg/kg IP, day 14, 5 hours
  inhibition of allodynia compared to the pretreatment value of delta withdrawal force: not effective
[2]; 150 mg/kg IP, day 14 and day 21, 2 hours
  pain relief activity, delta withdrawal force between the two legs vs. Vehicle: significant pain relief activity
[2]; 150 mg/kg IP, day 21, 2 hours
  inhibition of allodynia compared to the pretreatment value of delta withdrawal force: effectively inhibited allodynia
[2]; [9]
  inhibition of allodynia (Von Frey) compared to the Vehicle control: inhibited allodynia
  inhibition of allodynia (Von Frey) compared to the pretreatment value: inhibited allodynia
[2]; 150 mg/kg IP, study day 14, 5 hours
  inhibition of allodynia (Von Frey) compared to the Vehicle control: not effective
[2]; 150 mg/kg IP, study day 14, 24 hours
  inhibition of allodynia (Von Frey) compared to the pretreatment value: not effective
[2]; [10]
  inhibition of allodynia (Von Frey) compared to the Vehicle control: effectively inhibited allodynia
  inhibition of allodynia (Von Frey) compared to the pretreatment value: inhibited allodynia
[2]; 150 mg/kg IP, study day 21, 5 hours
  inhibition of allodynia (Von Frey) compared to the Vehicle control: not effective
[2]; summary statement
  duration of analgesic effect post administration: ≤ 5 h

## CN1CC[C@]23c4c5ccc(O)c4O[C@H]2[C@@H](O)C=C[C@H]3[C@H]1C5 [Morphine, reference compound]
[3]; 5 mg/kg IP (group 2)
  Mean latency time Post-treatment: 15.38 ± 1.47 s
  Mean latency time Pre-treatment: 7.92 ± 0.17 s
[3]; 5 mg/kg IP (group 2), listed as morphine
  Mean latency time Pre-treatment: 7.92 ± 0.17 s

## CC(O)COCC(Cc1ccc(O)cc1)NC(=O)CCc1ccccc1 [E2, (S)2-N(3-O—((R)propan 2-ol)-1-propyl-4-hydroxybenzene)-3-phenylpropylamide]
[4]
  modulation of BLK tyrosine kinase activity: inhibited
[3]; 10 mg/kg IP
  difference in tail flick latency times: did not cause any statistically significant difference
  increase of latency time between pretreatment and post treatment: not statistically significant
  reducing pain when compared to the Vehicle: not significantly active in reducing pain
[3]; 10 mg/kg IP (groups 4, 6)
  Δ of latency time post- and pre-treatment: 0.63 ± 0.87 s
  Mean latency time Post-treatment: 8.93 ± 0.93 s
  Mean latency time Pre-treatment: 8.30 ± 0.46 s
[3]; dose of 10 mg/kg
  conclusion: activity in tail flick study: not active
[3]; summary statement, listed as (S,R) enantiomer
  pain analgesic in animal models of pain: ineffective or less effective
[5]
  modulation of LynA tyrosine kinase activity: inhibited
[6]
  modulation of LynB tyrosine kinase activity: inhibited
